From paper PMC2959128 (Journal of the American Chemical Society, 2010)

Molecular target: T1, phosphopantetheinyl transferase Sfp (Bacillus subtilis, UniProt P39135)
T1 sequence (P39135 1-224): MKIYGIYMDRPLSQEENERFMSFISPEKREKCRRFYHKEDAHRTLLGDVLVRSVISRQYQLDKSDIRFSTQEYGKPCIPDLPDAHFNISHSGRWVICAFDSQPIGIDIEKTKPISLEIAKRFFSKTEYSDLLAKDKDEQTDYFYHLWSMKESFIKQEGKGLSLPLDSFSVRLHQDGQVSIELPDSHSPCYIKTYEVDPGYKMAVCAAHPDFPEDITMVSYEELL
Test: acyl-phosphopantetheinyl transfer to apo-ACP
Format: biochemical
Settings: DEBS apo-ACP6 as acceptor

Row | Structure (SMILES) | acyl-phosphopantetheinyl transfer to apo-ACP; LC-ESI(+)-MS
1 | CC[C@@H](O)[C@@H](C)C(=O)SCCNC(=O)CCNC(=O)[C@H](O)C(C)(C)COP(=O)(O)OP(=O)(O)OC[C@H]1O[C@@H](n2cnc3c(N)ncnc32)[C@H](O)[C@@H]1OP(=O)(O)O [2a-SCoA] | from DEBS apo-ACP6 using the phosphopantetheinyl transferase Sfp
2 | CC/C=C(\C)C(=O)SCCNC(=O)CCNC(=O)[C@H](O)C(C)(C)COP(=O)(O)OP(=O)(O)OC[C@H]1O[C@@H](n2cnc3c(N)ncnc32)[C@H](O)[C@@H]1OP(=O)(O)O [3-SCoA] | from DEBS apo-ACP6 using the phosphopantetheinyl transferase Sfp
